Where a name gives a salt, the structure may show the parent alone.
Columns and labels:
[1] = biological target: T1, Recombinant human IKKβ (residues 1-737) (Homo sapiens, UniProt O14920); test: IKK2 assay (TR-FRET); type: biochemical; details: ATP 1 μM final, read-out: pIC50 against IKK2 (converted)
T1 construct: Recombinant human IKKβ (residues 1-737); GST (C); made in house
T1 sequence (O14920 1-737): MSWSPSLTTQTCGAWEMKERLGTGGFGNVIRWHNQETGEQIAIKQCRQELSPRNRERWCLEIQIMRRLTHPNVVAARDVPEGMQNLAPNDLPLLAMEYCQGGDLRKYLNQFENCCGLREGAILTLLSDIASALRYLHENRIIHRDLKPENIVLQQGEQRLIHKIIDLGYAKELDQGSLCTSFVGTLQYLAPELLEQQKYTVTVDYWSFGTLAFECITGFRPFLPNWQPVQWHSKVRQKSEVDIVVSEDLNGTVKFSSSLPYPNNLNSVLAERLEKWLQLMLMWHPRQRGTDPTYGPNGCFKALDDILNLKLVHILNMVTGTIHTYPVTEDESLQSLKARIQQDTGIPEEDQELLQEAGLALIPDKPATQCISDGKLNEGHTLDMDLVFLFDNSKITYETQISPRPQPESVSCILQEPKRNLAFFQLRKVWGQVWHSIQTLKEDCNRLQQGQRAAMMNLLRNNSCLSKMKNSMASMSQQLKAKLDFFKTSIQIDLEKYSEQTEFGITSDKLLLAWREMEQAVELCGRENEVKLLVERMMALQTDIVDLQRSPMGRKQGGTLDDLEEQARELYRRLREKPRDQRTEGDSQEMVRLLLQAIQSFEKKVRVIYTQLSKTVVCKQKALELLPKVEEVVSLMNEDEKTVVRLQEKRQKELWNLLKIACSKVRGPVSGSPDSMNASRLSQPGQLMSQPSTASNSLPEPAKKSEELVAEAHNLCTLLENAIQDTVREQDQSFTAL
Outline: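 TR-FRET readout (665 nm over 620 nm Eu reference) of GST-IB Ser32/36 phosphorylation after 60 min detection. Reaction: 1 μM ATP, 25 nM substrate, 0.5-5 nM GST-fused IKKβ 1-737 from baculovirus, pH 7.4 HEPES buffer, 1.7% DMSO, 15 min room temperature, EDTA-terminated.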

[2] = system: human monocyte stimulated cytokine production (TNF-α); test: Monocyte assay (LPS-stimulated TNF-α production); type: cell-based; details: 24 h, 200 ng/mL LPS, TNF-α by ELISA
Outline: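 TNF-α release was measured by ELISA after 24 hrs at 37 C. Cells were stimulated with 200 ng/mL E. coli LPS, with compound added 30 minutes beforehand (0.1% DMSO vehicle). Cells were Ficoll/MACS-isolated CD14+ human monocytes adhered at 1×10^6 cells/mL, and viability was checked by trypan blue.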

| Compound | IC50 [1] | IC50 [2] |
| --- | --- | --- |
| CCS(=O)(=O)N1CCC(c2c[nH]c3c(C(N)=O)cc(-c4csc(CN5CCCCC5)c4)cc23)CC1 [Example 235, 3-[1-(ethylsulfonyl)-4-piperidinyl]-5-[5-(1-piperidinylmethyl)-3-thienyl]-1H-indole-7-carboxamide trifluoroacetate] | ≤ 10 µM | ≤ 1500 nM |
| CCS(=O)(=O)N1CCC(c2c[nH]c3c(C(N)=O)cc(-c4csc(CN5CCOCC5)c4)cc23)CC1 [Example 236, 3-[1-(ethylsulfonyl)-4-piperidinyl]-5-[5-(4-morpholinylmethyl)-3-thienyl]-1H-indole-7-carboxamide trifluoroacetate] | ≤ 10 µM | ≤ 1500 nM |
| CCS(=O)(=O)N1CCC(c2c[nH]c3c(C(N)=O)cc(-c4coc(CNC)c4)cc23)CC1 [Example 237, 3-[1-(ethylsulfonyl)-4-piperidinyl]-5-{5-[(methylamino)methyl]-3-furanyl}-1H-indole-7-carboxamide trifluoroacetate] | ≤ 10 µM | ≤ 1500 nM |
| CCS(=O)(=O)N1CCC(c2c[nH]c3c(C(N)=O)cc(-c4csc(C(C)N5CCCC5)c4)cc23)CC1 (stereo not shown) [Example 238, 3-[1-(ethylsulfonyl)-4-piperidinyl]-5-{5-[1-(1-pyrrolidinyl)ethyl]-3-thienyl}-1H-indole-7-carboxamide trifluoroacetate] | ≤ 10 µM | ≤ 1500 nM |
| CCS(=O)(=O)N1CCC(c2c[nH]c3c(C(N)=O)cc(-c4ccc(CN5CCCC5)s4)cc23)CC1 [Example 239, 3-[1-(ethylsulfonyl)-4-piperidinyl]-5-[5-(1-pyrrolidinylmethyl)-2-thienyl]-1H-indole-7-carboxamide trifluoroacetate] | ≤ 10 µM | ≤ 1500 nM |
| CCS(=O)(=O)N1CCC(c2c[nH]c3c(C(N)=O)cc(-c4ccc(CN(C)C)s4)cc23)CC1 [Example 240, 5-{5-[(dimethylamino)methyl]-2-thienyl}-3-[1-(ethylsulfonyl)-4-piperidinyl]-1H-indole-7-carboxamide trifluoroacetate] | ≤ 10 µM | ≤ 1500 nM |
| CCCNCc1ccc(-c2cc(C(N)=O)c3[nH]cc(C4CCN(S(=O)(=O)CC)CC4)c3c2)s1 [Example 241, 3-[1-(ethylsulfonyl)-4-piperidinyl]-5-{5-[(propylamino)methyl]-2-thienyl}-1H-indole-7-carboxamide trifluoroacetate] | ≤ 10 µM | ≤ 1500 nM |
| CCN(CC)Cc1ccc(-c2cc(C(N)=O)c3[nH]cc(C4CCN(S(=O)(=O)CC)CC4)c3c2)s1 [Example 242, 5-{5-[(diethylamino)methyl]-2-thienyl}-3-[1-(ethylsulfonyl)-4-piperidinyl]-1H-indole-7-carboxamide trifluoroacetate] | ≤ 10 µM | ≤ 1500 nM |
| CCS(=O)(=O)N1CCC(c2c[nH]c3c(C(N)=O)cc(-c4coc(CNCC(C)(C)C)c4)cc23)CC1 [Example 244, 5-(5-{[(2,2-dimethylpropyl)amino]methyl}-3-furanyl)-3-[1-(ethylsulfonyl)-4-piperidinyl]-1H-indole-7-carboxamide trifluoroacetate] | ≤ 10 µM | ≤ 1500 nM |
| CCS(=O)(=O)N1CCC(c2c[nH]c3c(C(N)=O)cc(-c4coc(CNCC5CCCC5)c4)cc23)CC1 [Example 246, 5-(5-{[(cyclopentylmethyl)amino]methyl}-3-furanyl)-3-[1-(ethylsulfonyl)-4-piperidinyl]-1H-indole-7-carboxamide trifluoroacetate] | ≤ 10 µM | ≤ 1500 nM |
| CCS(=O)(=O)N1CCC(c2c[nH]c3c(C(N)=O)cc(-c4coc(CN5CCCC5)c4)cc23)CC1 [Example 247, 3-[1-(ethylsulfonyl)-4-piperidinyl]-5-[5-(1-pyrrolidinylmethyl)-3-furanyl]-1H-indole-7-carboxamide trifluoroacetate] | ≤ 10 µM | ≤ 1500 nM |
| CCS(=O)(=O)N1CCC(c2c[nH]c3c(C(N)=O)cc(-c4ncc(CN5CCCC5)s4)cc23)CC1 [Example 249, 3-[1-(ethylsulfonyl)-4-piperidinyl]-5-[5-(1-pyrrolidinylmethyl)-1,3-thiazol-2-yl]-1H-indole-7-carboxamide trifluoroacetate] | ≤ 10 µM | > 1000 nM |
| CCS(=O)(=O)N1CCC(c2c[nH]c3c(C(N)=O)cc(-c4nc(CN5CCCC5)cs4)cc23)CC1 [Example 251, 3-[1-(ethylsulfonyl)-4-piperidinyl]-5-[4-(1-pyrrolidinylmethyl)-1,3-thiazol-2-yl]-1H-indole-7-carboxamide trifluoroacetate] | ≤ 10 µM | ≤ 1500 nM |
| CCS(=O)(=O)N1CCC(c2c[nH]c3c(C(N)=O)cc(-c4cnn(CCN5CCOCC5)c4)cc23)CC1 [Example 254, 3-[1-(ethylsulfonyl)-4-piperidinyl]-5-{1-[2-(4-morpholinyl)ethyl]-1H-pyrazol-4-yl}-1H-indole-7-carboxamide trifluoroacetate] | ≤ 10 µM | > 1000 nM |
| CCS(=O)(=O)N1CCC(c2c[nH]c3c(C(N)=O)cc(-c4cnn(CCNC5CCC5)c4)cc23)CC1 [Example 257, 5-{1-[2-(cyclobutylamino)ethyl]-1H-pyrazol-4-yl}-3-[1-(ethylsulfonyl)-4-piperidinyl]-1H-indole-7-carboxamide trifluoroacetate] | ≤ 10 µM | > 1000 nM |

Results, then the compound that gave them:

| IC50 [1] | IC50 [2] | Compound |
| --- | --- | --- |
| ≤ 10 µM | ≤ 1500 nM | CCS(=O)(=O)N1CCC(c2c[nH]c3c(C(N)=O)cc(-c4csc(CN[C@H](C)CO)c4)cc23)CC1 [Example 234, 3-[1-(ethylsulfonyl)-4-piperidinyl]-5-[5-({[(1R)-2-hydroxy-1-methylethyl]amino}methyl)-3-thienyl]-1H-indole-7-carboxamide trifluoroacetate (salt)] |
| ≤ 10 µM | ≤ 1500 nM | CCS(=O)(=O)N1CCC(c2c[nH]c3c(C(N)=O)cc(-c4coc(CNCC(C)C)c4)cc23)CC1 [Example 245, 3-[1-(ethylsulfonyl)-4-piperidinyl]-5-(5-{[(2-methylpropyl)amino]methyl}-3-furanyl)-1H-indole-7-carboxamide trifluoroacetate] |
| ≤ 10 µM | ≤ 1500 nM | CCN(CC)Cc1cc(-c2cc(C(N)=O)c3[nH]cc(C4CCN(S(=O)(=O)CC)CC4)c3c2)co1 [Example 248, 5-{5-[(diethylamino)methyl]-3-furanyl}-3-[1-(ethylsulfonyl)-4-piperidinyl]-1H-indole-7-carboxamide trifluoroacetate] |
| ≤ 10 µM | ≤ 1500 nM | CCS(=O)(=O)N1CCC(c2c[nH]c3c(C(N)=O)cc(-c4csc(C(C(C)C)N5CCCC5)c4)cc23)CC1 (stereo not shown) [Example 250, 3-[1-(ethylsulfonyl)-4-piperidinyl]-5-{5-[2-methyl-1-(1-pyrrolidinyl)propyl]-3-thienyl}-1H-indole-7-carboxamide trifluoroacetate] |
| ≤ 10 µM | > 1000 nM | CCS(=O)(=O)N1CCC(c2c[nH]c3c(C(N)=O)cc(-c4cnn(CCN5CCCC5)c4)cc23)CC1 [Example 253, 3-[1-(ethylsulfonyl)-4-piperidinyl]-5-{1-[2-(1-pyrrolidinyl)ethyl]-1H-pyrazol-4-yl}-1H-indole-7-carboxamide trifluoroacetate] |
| ≤ 10 µM | > 1000 nM | CCS(=O)(=O)N1CCC(c2c[nH]c3c(C(N)=O)cc(-c4cnn(CCNCCO)c4)cc23)CC1 [Example 255, 3-[1-(ethylsulfonyl)-4-piperidinyl]-5-(1-{2-[(2-hydroxyethyl)amino]ethyl}-1H-pyrazol-4-yl)-1H-indole-7-carboxamide trifluoroacetate] |
| ≤ 10 µM | > 1000 nM | CCCCNCCn1cc(-c2cc(C(N)=O)c3[nH]cc(C4CCN(S(=O)(=O)CC)CC4)c3c2)cn1 [Example 256, 5-{1-[2-(butylamino)ethyl]-1H-pyrazol-4-yl}-3-[1-(ethylsulfonyl)-4-piperidinyl]-1H-indole-7-carboxamide trifluoroacetate] |
| ≤ 10 µM | > 1000 nM | CCN(CC)CCNCCn1cc(-c2cc(C(N)=O)c3[nH]cc(C4CCN(S(=O)(=O)CC)CC4)c3c2)cn1 [Example 258, 5-[1-(2-{[2-(diethylamino)ethyl]amino}ethyl)-1H-pyrazol-4-yl]-3-[1-(ethylsulfonyl)-4-piperidinyl]-1H-indole-7-carboxamide trifluoroacetate] |
